Measured values: article PMC8989888, “Development of optimized drug-like small molecule inhibitors of the SARS-CoV-2 3CL protease for treatment of COVID-19” (Nature Communications, 2022)
Several values for one entry are separate records, joined by “and”; a condition that tells them apart may be missing. Identical values can stand only once. Like-named read-outs stand apart in the source and are kept apart here.

Legend:
[1] = test system: SARS-CoV-2; settings: read-out: SARS-CoV-2 antiviral EC50; cited from earlier work
[2] = Mouse liver microsome stability; settings: liver microsomes, second (control) series
[3] = biological target: T1, SARS-CoV-2 3CL protease (Severe acute respiratory syndrome coronavirus 2, UniProt P0DTD1); assay: biochemical
[4] = biological target: T1, SARS-CoV-2 3CL protease; assay: biochemical; settings: for kinact/KI: read-out: SARS-CoV-2 3CLpro kinact/KI
[5] = biological target: T1, SARS-CoV-2 3CL protease; assay type: binding
[6] = test system: SARS-CoV-2; assay: microbe, parasite or virus in culture; assay type: cell-based
[7] = test system: SARS-CoV-2; assay: microbe, parasite or virus in culture; assay type: cell-based; settings: for EC50: Severe acute respiratory syndrome coronavirus 2, 24 h, read-out: SARS-CoV-2 Huh-7ACE2 EC50
[8] = biological target: SARS-CoV-2; assay: cell-based
[9] = test system: SARS-CoV-2; assay: microbe, parasite or virus in culture; assay type: cell-based; settings: Severe acute respiratory syndrome coronavirus 2, read-out: SARS-CoV-2 EC50
[10] = test system: Human coronavirus alpha (strain: 229E); assay: organism not typed; assay type: cell-based, HCoV-229E; settings: Huh-7, read-out: EC50, human coronavirus 229E
[11] = test system: Human coronavirus beta (strain: OC43); assay: organism not typed; assay type: cell-based, HCoV-OC43; settings: Huh-7, read-out: EC50, human coronavirus OC43
[12] = test system: Influenza A H1N1 (strain: California/07/2009); assay: microbe, parasite or virus in culture; assay type: cell-based
[13] = in vitro
[14] = test system: SARS-CoV-2; assay: microbe, parasite or virus in culture; settings: Severe acute respiratory syndrome coronavirus 2, Caco-2, 72 h, read-out: SARS-CoV-2 Caco-2 EC90
[15] = biological target: T1, SARS-CoV-2 3CL protease; assay type: binding; remark: listed apart in the source
[16] = test system: human chymotrypsin; assay: Chymotrypsin activity assay (Panc-1 cell lysate); assay type: biochemical
[17] = in vitro; settings: human, plasma
[18] = in vitro; settings: CD-1, mouse, plasma
[19] = in vitro; settings: human, microsomes, pH 7.4
[20] = in vitro; settings: CD-1, mouse, microsomes, pH 7.4
[21] = 20 nM protease, read-out: SARS-CoV-2 3CLpro IC50
[22] = Concentration of inhibitor (nM) 0.19382
[23] = Concentration of inhibitor (nM) 0.49485
[24] = Concentration of inhibitor (nM) 0.79588
[25] = Concentration of inhibitor (nM) 1.09691
[26] = Concentration of inhibitor (nM) 1.39794
[27] = Concentration of inhibitor (nM) 1.69897
[28] = Concentration of inhibitor (nM) 2
[29] = Concentration of inhibitor (nM) 2.60206
[30] = Concentration of inhibitor (nM) -0.10721
[31] = Concentration of inhibitor (nM) -0.40824
[32] = Severe acute respiratory syndrome coronavirus 2, Vero C1008, read-out: SARS-CoV-2 Vero E6 EC50

Compound	EC50 [1] [µM]	IC50 [3, 21] [µM]	normalized activity, dose-response curve (Figure S16) [3, 22]	normalized activity, dose-response curve (Figure S16) [3, 23]	normalized activity, dose-response curve (Figure S16) [3, 24]	normalized activity, dose-response curve (Figure S16) [3, 25]	normalized activity, dose-response curve (Figure S16) [3, 26]	normalized activity, dose-response curve (Figure S16) [3, 27]	normalized activity, dose-response curve (Figure S16) [3, 28]	normalized activity, dose-response curve (Figure S16) [3, 29]	normalized activity, dose-response curve (Figure S16) [3, 30]	normalized activity, dose-response curve (Figure S16) [3, 31]	observed inactivation rate vs compound concentration (Figure S19, replicate values) [4]	kinact/KI [4] [M⁻¹ s⁻¹]	binding to 3CL protease by mass spectrometry (in words) [5]	EC50 [6, 32] [µM]	inhibition of SARS-CoV-2 (Figure s17b dose-response, replicate values) [7]	EC50 [7] [µM]	EC50 [8] [µM]	other results
PF-00835231	0.221																			
CCOc1ccc2ccc(=O)oc2c1 [7-ethoxycoumarin]																				percent remaining (Figure S11f) ([2]; Time T0 min): 100; percent remaining (Figure S11f) ([2]; Time T40 min): 93.3574 and 91.0789; percent remaining (Figure S11f) ([2]; Time T80 min): 86.8345 and 92.3642
CC(C)(C)[C@H](NC(=O)C(F)(F)F)C(=O)N1C[C@H]2[C@@H]([C@H]1C(=O)N[C@H](C#N)C[C@@H]1CCNC1=O)C2(C)C [PF-07321332]	0.078																			
CC(C)C[C@H](NC(=O)OCc1ccc2ccccc2c1)C(=O)N[C@@H](C[C@@H]1CCNC1=O)C(O)S(=O)(=O)O (some centres unmarked) [EB56]		0.05	89.823 and 93.9936	85.2362 and 82.2757	85.487 and 88.0978	72.8375 and 72.1422	69.3615 and 64.0723	53.5944 and 48.1904	29.9078 and 31.2768	3.964 and 3.456	94.804 and 91.5247	100	0.0572 and 0.0815 and 0.095 and 0.0426 and 0.0949 and 0.1078 and 0.0732 and 0.0307 and 0.0058 and 0.0365 and 0.0284 and 0.0434 and 0.0176 and 0.0243 and -0.00666 and 0.0205 and 0.0022 and 0.0219 and 0.0071 and 0.0016 and -0.00538	18300	blocked the covalent binding of 10 equivalents of compound 4	4	102.227 and 102.618 and 99.1767 and 91.8872 and 92.3176 and 92.3719 and 59.4672 and 57.4366 and 41.3693 and 36.9002 and 26.4205 and 14.778 and 9.09 and 16.3686 and 1.374 and -4.092 and 13.2513 and -12.3171 and 9.345 and 11.9707 and 3.907	0.028	0.8	
CC(C)C[C@H](NC(=O)OCc1cccc(Cl)c1)C(=O)N[C@@H](C[C@@H]1CCNC1=O)C(O)S(=O)(=O)O (some centres unmarked) [EB46]		0.023	94.5875 and 99.4983	85.636 and 94.5724	82.4718 and 89.5097	66.6922 and 69.8061	43.7931 and 49.1904	26.3066 and 19.407	3.283 and 4.675	0.4514 and 0.7525	95.5867 and 98.0844	100	0.066 and 0.0593 and 0.077 and 0.0911 and 0.0219 and 0.0804 and 0.0309 and 0.0674 and 0.0293 and 0.0341 and 0.0137 and 0.0021 and 0.0076 and 0.0213 and 0.0308 and 0.0151 and 0.0444 and 0.0119	55000		2	95.1515 and 86.8894 and 89.9129 and 91.3208 and 86.4116 and 95.1857 and 65.8333 and 65.5396 and 57.9806 and 19.6057 and 31.892 and 43.1913 and 11.28 and 11.1506 and 22.0558 and -4.012 and 10.0819 and 19.0531 and -4.489 and -1.7527 and 16.6924	0.014	1.1	normalized activity, dose-response curve (Figure S16) ([3]; Concentration of inhibitor (nM) 2.30103): 2.2 and 3.398; EC50 [9]: 0.047 µM; EC50 [10]: < 0.1 µM; EC50 [11]: < 0.1 µM; effect on replication of Influenza H1N1 (in words) [12]: no effect was observed; EC50 ([12]; Influenza A virus, H1N1, MDCK, read-out: Influenza A (H1N1) MDCK EC50): > 100 µM; CC50 [13]: > 100 µM; EC90 [14]: 0.053 µM
CCOC(=O)C=CC(CC1CCNC1=O)NC(=O)C(CC(C)C)NC(=O)C(NC(=O)OCc1ccccc1)C(C)OC(C)(C)C (centres unmarked) [compound 4]															one-to-one complex					Normalized SARS-CoV-2 3CL protease activity [3]: 0.006645 and 0.009809 and 0.01123; IC50 ([3]; IC50): 0.123 µM; binding stoichiometry [15]: 0.97 ± 0.06; Normalized chymotrypsin activity [16]: 0.9372 and 0.8587 and 0.9322; EC50 ([6]; Severe acute respiratory syndrome coronavirus 2, Vero C1008, 72 h, read-out: EC50, inhibition of SARS-CoV-2 viral replication): 0.8 µM; concentration above which precipitates formed: above 100 µM; half-life [17]: > 240 min; half-life [18]: 10 min; half-life [19]: 19 min; half-life [20]: 7.3 min
